Assay results as given in patent US8722626B2, “Method for controlling fibrosis and other pathological deposits in tissues comprising administering a GHRP-6 composition” (Centro de Ingenieria Genetica y Biotecnologia, priority 2006, dated 2014).
Marks after values point to notes of the source that are not given here.

Key:
[1] = tested on: hepatic fibrosis in male Wistar rats (bile duct ligation); assay: Reverting hepatic fibrosis induced by ligation of the common bile duct in rats (Example 1); format: in vivo, rat; parameters: SODt (oxidative stress marker) / Catalase (oxidative stress marker) / HPT (oxidative stress marker) / MDA (oxidative stress marker): unit not given here; conditions: for Grade 0 (null) hepatic fibrosis, animals per group / Grade 1 (moderate) hepatic fibrosis, animals per group / Grade 2 (limited) hepatic fibrosis, animals per group / Grade 3 (severe) hepatic fibrosis, animals per group / Grade 4 (very severe) hepatic fibrosis, animals per group: three weeks; for GGT serum level / GOT serum level / GPT serum level / Content of OH—P (hydroxiproline) in liver: end of three weeks of treatment; for Catalase (oxidative stress marker) / HPT (oxidative stress marker) / MDA (oxidative stress marker) / SODt (oxidative stress marker): liver samples, end of third week of treatment
Experimental: The present experiment was conducted to evaluate the effect of the GHRP-6-based pharmaceutical composition on reverting the hepatic fibrosis in rats. Hepatic fibrosis was induced in male Wistar rats of 250 g of average body weight by ligating the external bile duct. For this purpose, rats were anesthetized with a ketamine/xylazine combination and subjected to laparotomy to expose the common bile duct. The duct was double-ligated with chromium catgut 4-0. After surgery, animals were randomly distributed into 3 experimental groups of 20 rats each: (1) Control placebo group, receiving physiological saline solution, (2) Group receiving the GHRP-6 at a 100 μg/kg dosage, and (3) Group receiving the GHRP-6 at a 400 μg/kg dosage. Treatments were daily administered during three weeks after inducing the fibrosis of the liver parenchyma. All the treatments were started three weeks after the appearance of fibrosis. The follow up of the hepatic damage was conducted by weekly ultrasound examinations of the projection area of this organ, the progress of serum levels of GOT and GPT transaminases, gamma glutamyl transferase (GGT) levels and the volume of ascitis. Treatments with GHRP-6 or placebo were applied by the intraperitoneal route once daily. When treatments concluded, animals were sacrificed and blood serum and the liver were collected. Liver fragments were fixed in formalin neutral and processed by hematoxylin/eosin staining, or by Masson's trichromic staining, to evaluate the general damage and the severity of fibrotic indurations. Other fragments of liver tissues were stored at −70° C. until processing to determine the content of hydroxiproline by acid hydrolysis in 1N HCl, and also the intrahepatic levels of redox metabolism markers. Biochemical determinations were carried out by calculating the total protein content by the Bradford's method.

[2] = tested on: hepatic fibrosis in male Wistar rats (CCl4); assay: Reverting hepatic fibrosis induced by carbon tetrachloride (CCl4) in rats (Example 2); format: in vivo, rat; parameters: SODt (oxidative stress marker) / Catalase (oxidative stress marker) / HPT (oxidative stress marker) / MDA (oxidative stress marker): unit not given here; conditions: for GOT serum level / GPT serum level / OH—P Content (hydroxiproline) in the liver / Grade 0 (null) bridging fibro-proliferative reaction in liver, animals per group / Grade 1 (moderate, up to 25% of the slide), animals per group / Grade 2 (limited, up to 50% of the slide), animals per group / Grade 3 (severe, up to the 75% of the slide), animals per group / Grade 4 (very severe, over 75% of the slide), animals per group: four weeks; for GOT serum level / GPT serum level / OH—P Content (hydroxiproline) in the liver: end of treatment; for Grade 0 (null) bridging fibro-proliferative reaction in liver, animals per group / Grade 1 (moderate, up to 25% of the slide), animals per group / Grade 2 (limited, up to 50% of the slide), animals per group / Grade 3 (severe, up to the 75% of the slide), animals per group / Grade 4 (very severe, over 75% of the slide), animals per group: n = 15; for Catalase (oxidative stress marker) / HPT (oxidative stress marker) / MDA (oxidative stress marker) / SODt (oxidative stress marker): liver samples, end of the third week of treatment
Experimental: This experiment was conducted to evaluate the effect of the pharmaceutical composition containing the GHRP-6 on reverting hepatic fibrosis in rats, wherein said hepatic fibrosis was induced by carbon tetrachloride (CCl4). This is a hepatotoxic agent that causes chronic hepatitis and fibrosis after long-term administration. Hepatic fibrosis was induced in male Wistar rats of 250 g of body weight by intraperitoneally administered CCl4 50%/50% (v/v) in olive oil, twice per week during four weeks. After that time, 25% of the rats were sacrificed and subjected to blood biochemistry and pathological anatomy studies. […] The animals remaining were randomly distributed into three experimental groups of 15 rats each: (1) Control placebo group, receiving physiological saline solution, (2) Group receiving the GHRP-6 at a 100 μg/kg dosage, and (3) Group receiving the GHRP-6 at a 400 μg/kg dosage. […] Treatments were started immediately after the fibrosis established and the suspension of CCl4 administration. […] Liver fragments were fixed in formalin neutral and processed by hematoxylin/eosin staining, or by Masson's trichromic staining, to evaluate the general damage and the severity of fibrotic indurations. Other fragments of liver tissues were stored at −70° C. until processing to determine the content of hydroxiproline by acid hydrolysis in 1N HCl, and also the intrahepatic levels of redox metabolism markers. Biochemical determinations were carried out by calculating the total protein content by the Bradford's method. The response to the treatment with the pharmaceutical composition was characterized by determining the serum levels of GOT and GPT transaminases, histological criteria in quantitative scale and some markers distinctive of the levels of lipid peroxidation.

[3] = Dosage I: 100 μg/kg i.p. once daily, N = 16
[4] = Dosage I: 100 μg/kg i.p. once daily
[5] = Dosage II: 400 μg/kg i.p. once daily, N = 20
[6] = Dosage II: 400 μg/kg i.p. once daily
[7] = Dosage II: 400 μg/kg once daily

With GHRP-6 the “Grade 0 (null) hepatic fibrosis, animals per group” value [1, 3] was 5, the “Grade 1 (moderate) hepatic fibrosis, animals per group” value [1, 3] was 9 and the “Grade 2 (limited) hepatic fibrosis, animals per group” value [1, 3] was 2. For the same substance, the “Grade 3 (severe) hepatic fibrosis, animals per group” value [1, 3] was 0, the “Grade 4 (very severe) hepatic fibrosis, animals per group” value [1, 3] was 0 and the GGT serum level [1, 4] was 71.53 ± 22.14 U/I. For the same substance, the GOT serum level [1, 4] was 61.58 ± 16.10 IU/I, the GPT serum level [1, 4] was 81.71 ± 30.90 IU/I and the “Content of OH—P (hydroxiproline) in liver” value [1, 3] was 56.71 ± 8.11 μg/g of total proteins. For the same substance, the “Grade 0 (null) hepatic fibrosis, animals per group” value [1, 5] was 8, the “Grade 1 (moderate) hepatic fibrosis, animals per group” value [1, 5] was 11 and the “Grade 2 (limited) hepatic fibrosis, animals per group” value [1, 5] was 1. For the same substance, the “Grade 3 (severe) hepatic fibrosis, animals per group” value [1, 5] was 0, the “Grade 4 (very severe) hepatic fibrosis, animals per group” value [1, 5] was 0 and the GGT serum level [1, 6] was 25.56 ± 8.63 U/I. For the same substance, the GOT serum level [1, 6] was 30.41 ± 6.11 IU/I, the GPT serum level [1, 6] was 60.64 ± 19.87 IU/I and the “Content of OH—P (hydroxiproline) in liver” value [1, 5] was 16.15 ± 1.025 μg/g of total proteins. The “Deposit of collagenous and extracellular materials in liver parenchyma (overall result)” value ([1]; ligation of the common bile duct, morphological and biochemical data) was “eradicate and control the deposit of collagenous and extracellular materials in liver parenchyma”, the “Catalase (oxidative stress marker)” value ([1]; Dosage I: 100 μg/kg) was 68.50 ± 12.73 and the “HPT (oxidative stress marker)” value ([1]; Dosage I: 100 μg/kg) was 43.06 ± 1.83. The “MDA (oxidative stress marker)” value ([1]; Dosage I: 100 μg/kg) was 0.14 ± 0.02, the “SODt (oxidative stress marker)” value ([1]; Dosage I: 100 μg/kg) was 11058.07 ± 744.61 and the “Catalase (oxidative stress marker)” value ([1]; Dosage II: 400 μg/kg) was 31.50 ± 4.3. For the same substance, the “HPT (oxidative stress marker)” value ([1]; Dosage II: 400 μg/kg) was 21.16 ± 1.71, the “MDA (oxidative stress marker)” value ([1]; Dosage II: 400 μg/kg) was 0.08 ± 0.01 and the “SODt (oxidative stress marker)” value ([1]; Dosage II: 400 μg/kg) was 21029.87 ± 498.28. The GOT serum level ([2]; Dosage I: 100 μg/kg once daily) was 56.31 ± 12.19 IU/l, the GPT serum level ([2]; Dosage I: 100 μg/kg once daily) was 77.15 ± 22.66 IU/l and the “OH—P Content (hydroxiproline) in the liver” value ([2]; Dosage I: 100 μg/kg once daily) was 40.21 ± 3.54 μg/g of total proteins. For the same substance, the “Grade 0 (null) bridging fibro-proliferative reaction in liver, animals per group” value ([2]; Dosage I: 100 μg/kg once daily) was 0, the “Grade 1 (moderate, up to 25% of the slide), animals per group” value ([2]; Dosage I: 100 μg/kg once daily) was 9 and the “Grade 2 (limited, up to 50% of the slide), animals per group” value ([2]; Dosage I: 100 μg/kg once daily) was 6*. For the same substance, the “Grade 3 (severe, up to the 75% of the slide), animals per group” value ([2]; Dosage I: 100 μg/kg once daily) was 0, the “Grade 4 (very severe, over 75% of the slide), animals per group” value ([2]; Dosage I: 100 μg/kg once daily) was 0 and the GOT serum level [2, 7] was 28.18 ± 4.71 IU/l. For the same substance, the GPT serum level [2, 7] was 26.94 ± 12.42 IU/l, the “OH—P Content (hydroxiproline) in the liver” value [2, 7] was 10.22 ± 4.33 μg/g of total proteins and the “Grade 0 (null) bridging fibro-proliferative reaction in liver, animals per group” value [2, 7] was 8*. For the same substance, the “Grade 1 (moderate, up to 25% of the slide), animals per group” value [2, 7] was 7, the “Grade 2 (limited, up to 50% of the slide), animals per group” value [2, 7] was 0 and the “Grade 3 (severe, up to the 75% of the slide), animals per group” value [2, 7] was 0. The “Grade 4 (very severe, over 75% of the slide), animals per group” value [2, 7] was 0, the “Catalase (oxidative stress marker)” value ([2]; Dosage I: 100 μg/kg) was 60.43 ± 11.81 and the “HPT (oxidative stress marker)” value ([2]; Dosage I: 100 μg/kg) was 55.11 ± 2.77. The “MDA (oxidative stress marker)” value ([2]; Dosage I: 100 μg/kg) was 0.16 ± 1.16, the “SODt (oxidative stress marker)” value ([2]; Dosage I: 100 μg/kg) was 17632.08 ± 321.55 and the “Catalase (oxidative stress marker)” value ([2]; Dosage II: 400 μg/kg) was 22.67 ± 3.56. The “HPT (oxidative stress marker)” value ([2]; Dosage II: 400 μg/kg) was 26.44 ± 2.43, the “MDA (oxidative stress marker)” value ([2]; Dosage II: 400 μg/kg) was 0.09 ± 0.01 and the “SODt (oxidative stress marker)” value ([2]; Dosage II: 400 μg/kg) was 20187.87 ± 245.13. The “Deposition of collagenous and extracellular matrix materials in the liver parenchyma (overall result)” value ([2]; repeated CCl4 administration) was “eradicate and control deposition of collagenous and extracellular matrix materials” and the Hepatocytes death ([2]; repeated CCl4 administration) was “prevents individual, focal and pericentrolobular hepatocytes death”.
